Test results from patent US7528164B2, “Substituted 4-aryl-4h-pyrrolo[2,3-h]chromenes and analogs as activators of caspases and inducers of apoptosis and the use thereof” (Cytovia, Inc., priority 2002, dated 2009).
Like-named read-outs stand apart in the source and are kept apart here.

Key:
T-47D = assay: Caspase cascade activation assay in T-47D cells (N-(Ac-DEVD)-N'-ethoxycarbonyl-R110 fluorogenic substrate); format: cell-based; conditions: T-47D human breast cancer cells, 24 h incubation; for Caspase activity (Ratio): ratio of net RFU of test compound to control; for EC50: sigmoidal dose-response, read-out: Caspase potency EC50
Method: (§1) Human breast cancer cell lines T-47D and ZR-75-1 were grown according to media component mixtures designated by American Type Culture Collection+10% FCS (Invitrogen Corporation), in a 5% CO2-95% humidity incubator at 37° C. T-47D and ZR-75-1 cells were maintained at a cell density between 30 and 80% confluency at a cell density of 0.1 to 0.6×10^6 cells/mL. Cells were harvested at 600×g and resuspended at 0.65×10^6 cells/mL into appropriate media+10% FCS. An aliquot of 45 μl of cells was added to a well of a 96-well microtiter plate containing 5 μl of a 10% DMSO in RPMI-1640 media solution containing about […] of 2-amino-3-cyano-4-(5-methyl-pyridin-3-yl)-7-methyl-4H-pyrrolo[2,3-h]chromene (Example 10) or other test compound (0.016 to 1 μM final). An aliquot of 45 μl of cells was added to a well of a 96-well microtiter plate containing 5 μl of a 10% DMSO in RPMI-1640 media solution without test compound as the control sample. The samples were mixed by agitation and then incubated at 37° C. for 24 h in a 5% CO2-95% humidity incubator. After incubation, the samples were removed from the incubator and 50 μl of a solution containing 20 μM of N-(Ac-DEVD)-N′-ethoxycarbonyl-R110 (SEQ ID No:1) fluorogenic substrate (Cytovia, Inc.; U.S. Pat. No. 6,335,429), 20% sucrose (Sigma), 20 mM DTT (Sigma), 200 mM NaCl (Sigma), 40 mM Na PIPES buffer pH 7.2 (Sigma), and 500 μg/ml lysolecithin (Calbiochem) was added. The samples were mixed by agitation and incubated at room temperature. Using a fluorescent plate reader (Model 1420 Wallac Instruments), an initial reading (T=0) was made approximately 1-2 min after addition of the substrate solution, employing excitation at 485 nm and emission at 530 nm, to determine the background fluorescence of the control sample. After the 3 h incubation, the samples were read for fluorescence as above (T=3 h).
(§2) The Relative Fluorescence Unit values (RFU) were used to calculate the sample readings as follows: RFU(T=3h)−Control RFU(T=0)=Net RFU(T=3h) The activity of caspase cascade activation was determined by the ratio of the net RFU value for 2-amino-3-cyano-4-(5-methyl-pyridin-3-yl)-7-methyl-4H-pyrrolo[2,3-h]chromene or other test compound to that of control samples. The EC50 (nM) was determined by a sigmoidal dose-response calculation (Prism 2.0, GraphPad Software Inc.).

ZR-75-1 = assay: Caspase cascade activation assay in ZR-75-1 cells (N-(Ac-DEVD)-N'-ethoxycarbonyl-R110 fluorogenic substrate); format: cell-based; conditions: ZR-75-1 human breast cancer cells, 24 h incubation; for Caspase activity (Ratio): ratio of net RFU of test compound to control; for EC50: sigmoidal dose-response, read-out: Caspase potency EC50
Method: as §1, §2

| Structure (SMILES) | EC50 (T-47D) [nM] | EC50 (ZR-75-1) [nM] | EC50 (T-47D; T47D) [nM] | Caspase activity (Ratio) (T-47D) | Caspase activity (Ratio) (ZR-75-1) |
| --- | --- | --- | --- | --- | --- |
| CCC=CCC=CCC=CCC=CCC=CCC=CCCC(=O)OCn1ccc2c3c(ccc21)C(c1cncc(C)c1)C(C#N)=C(N)O3 (centres unmarked) [Example 39, 4,7,10,13,16,19-Docosahexaenoic acid {2-Amino-3-cyano-4-(5-methyl-pyridin-3-yl)-4H-pyrrolo[2,3-h]chromene}-7-ylmethyl ester] | 51 | 26 |  | 3.7 | 6.2 |
| Cn1ccc2c3c(ccc21)C(c1ccc(C#N)cc1)C(C#N)=C(N)O3 (centres unmarked) [Example 40B, 2-Amino-3-cyano-4-(4-cyanophenyl)-7-methyl-4H-pyrrolo[2,3-h]chromene] |  | 35 | 55 | 4.9 | 4.2 |
| Cn1ccc2c3c(ccc21)C(c1cc(Cl)cc(Cl)c1)C(C#N)=C(N)O3 (centres unmarked) [Example 40D, 2-Amino-3-cyano-4-(3,5-dichlorophenyl)-7-methyl-4H-pyrrolo[2,3-h]chromene] |  | 15 | 25 | 3.3 | 2.9 |
| Cn1ccc2c3c(ccc21)C(c1ccc(Cl)c(Cl)c1)C(C#N)=C(N)O3 (centres unmarked) [Example 40E, 2-Amino-3-cyano-4-(3,4-dichlorophenyl)-7-methyl-4H-pyrrolo[2,3-h]chromene] |  | 81 | > 100 | 1.3 | 3.2 |
| COc1cc(C2C(C#N)=C(N)Oc3c2ccc2c3c(C)cn2C)cc(Br)c1OC (centres unmarked) [Example 40F, 2-Amino-3-cyano-4-(3-bromo-4,5-dimethoxyphenyl)-7,9-dimethyl-4H-pyrrolo[2,3-h]chromene] |  | 26 | 42 | 2.6 | 3.9 |
| Cn1ccc2c3c(ccc21)C(c1ccc(F)c(F)c1)C(C#N)=C(N)O3 (centres unmarked) [Example 40G, 2-Amino-3-cyano-4-(3,4 difluorophenyl)-7-methyl-4H-pyrrolo[2,3-h]chromene] |  | 15 | 29 | 4.6 | 5.9 |
| Cn1ccc2c3c(ccc21)C(c1ccc(Cl)c(F)c1)C(C#N)=C(N)O3 (centres unmarked) [Example 40H, 2-Amino-3-cyano-4-(3-fluoro-4-chlorophenyl)-7-methyl-4H-pyrrolo[2,3-h]chromene] |  | 56 | > 100 | 1.3 | 6.0 |
| CC(C)n1ccc2c3c(ccc21)C(c1cc(Cl)cc(Cl)c1)C(C#N)=C(N)O3 (centres unmarked) [Example 42, 2-Amino-3-cyano-4-(3,5-dichloro-phenyl)-7-isopropyl-4H-pyrrolo [2,3-h]chromene] |  | 57 | > 100 | 1.8 | 2.6 |
| COc1cc(C2C(C#N)=C(N)Oc3c2ccc2c3ccn2C(C)C)cc(Br)c1OC (centres unmarked) [Example 43, 2-Amino-3-cyano-4-(3-bromo-4,5-dimethoxy-phenyl)-7-isopropyl-4H-pyrrolo[2,3-h]chromene] |  | 55 | 58 | 2.5 | 6.3 |

The next compounds have a lower EC50 (ZR-75-1) than those just listed; values first:

| EC50 (T-47D) [nM] | EC50 (ZR-75-1) [nM] | EC50 (T-47D; T47D) [nM] | Structure (SMILES) | Caspase activity (Ratio) (T-47D) | Caspase activity (Ratio) (ZR-75-1) |
| --- | --- | --- | --- | --- | --- |
|  | 7.2 | 14 | Cn1ccc2c3c(ccc21)C(c1cccc(F)c1)C(C#N)=C(N)O3 (centres unmarked) [Example 40A, 2-Amino-3-cyano-4-(3-fluorophenyl)-7-methyl-4H-pyrrolo[2,3-h]chromene] | 5.1 | 4.1 |
|  | 7.9 | 14 | Cn1ccc2c3c(ccc21)C(c1cccc(Cl)c1)C(C#N)=C(N)O3 (centres unmarked) [Example 40C, 2-Amino-3-cyano-4-(3-chlorophenyl)-7-methyl-4H-pyrrolo[2,3-h]chromene] | 4.0 | 2.7 |
|  | 14 | 29 | Cn1ccc2c3c(ccc21)C(c1ccc(F)c(Br)c1)C(C#N)=C(N)O3 (centres unmarked) [Example 40I, 2-Amino-3-cyano-4-(3-bromo-4-fluorophenyl)-7-methyl-4H-pyrrolo[2,3-h]chromene] | 3.9 | 4.4 |
|  | 14 | 29 | Cn1ccc2c3c(ccc21)C(c1ccc(F)c(C#N)c1)C(C#N)=C(N)O3 (centres unmarked) [Example 40J, 2-Amino-3-cyano-4-(3-cyano-4-fluorophenyl)-7-methyl-4H-pyrrolo[2,3-h]chromene] | 3.6 | 5.8 |
|  | 2 | 4 | COc1cncc(C2C(C#N)=C(N)Oc3c2ccc2c3ccn2C)c1 (centres unmarked) [Example 41, 2-Amino-3-cyano-4-(5-methoxy-pyridin-3-yl)-7-methyl-4H-pyrrolo[2,3-h]chromene] | 3.8 | 4.2 |
